According to patent US12673077B2, “Anthelmintic probiotic compositions and methods” (priority 2014, dated 2026):
Like-named read-outs stand apart in the source and are kept apart here.

B1: Cry5B: Bacillus thuringiensis crystal (Cry) protein Cry5B, purified protein (sequence FIG. 2, SEQ ID NO:1) (protein, listed as Bacillus thuringiensis)
chain: MATINELYPVPYNVLAHPIKEVDDPYSWSNLLKGIQEGWEEWGKTGQKKLFEDHLTIAWNLYKTGKLDYFALTKASISLIGFIPGAEAAVPFINMFVDFVWPKLFGANTEGKDQQLFNAIMDAVNKMVDNKFLSYNLSTLNKTIEGLQGNLGLFQNAIQVAICQGSTPERVNFDQNCTPCNPNQPCKDDLDRVASRFDTANSQFTQHLPEFKNPWSDENSTQEFKRTSVELTLPMYTTVATLHLLLYEGYIEFMTKWNFHNEQYLNNLKVELQQLIHSYSETVRTSFLQFLPTLNNRSKSSVNAYNRYVRNMTVNCLDIAATWPTFDTHNYHQGGKLDLTRIILSDTAGPIEEYTTGDKTSGPEHSNITPNNILDTPSPTYQHSFVSVDSIVYSRKELQQLDIATYSTNNSNNCHPYGLRLSYTDGSRYDYGDNQPDFTTSNNNYCHNSYTAPITLVNARHLYNAKGSLQNVESLVVSTVNGGSGSCICDAWINYLRPPQTSKNESRPDQKINVLYPITETVNKGTGGNLGVISAYVPMELVPENVIGDVNADTKLPLTQLKGFPFEKYGSEYNNRGISLVREWINGNNAVKLSNSQSVGIQITNQTKQKYEIRCRYASKGDNNVYFNVDLSENPFRNSISFGSTESSVVGVQGENGKYILKSITTVEIPAGSFYVHITNQGSSDLFLDRIEFVPKIQFQFCDNNNLHCDCNNPVDTDCTFCCVCTSLTDCDCNNPRGLDCTLCCQVENQLPSFVTLTDLQNITTQVNALVASSEHDTLATDVSDYEIEEVVLKVDALSGEVFGKEKKALRKLVNHTKRLSKARNLLIGGNFDNLDAWYRGRNVVNVSDHELFKSDHVLLPPPTLYSSYMFQKVEESKLKANTRYTVSGFIAHAEDLEIVVSRYGQEVKKVVQVPYGEAFPLTSRGAICCPPRSTSNGKPADPHFFSYSIDVGTLDVEANPGIELGLRIVERTGMARVSNLEIREDRPLKKNELRNVQRAARNWRTAYDQERAEVTALIQPVLNQINALYENEDWNGAIRSGVSYHDLEAIVLPTLPKLNHWFMSDMLGEQGSILAQFQEALDRAYTQLEESTILHNGHFTTDAANWTIEGDAHHAILEDGRRVLRLPDWSSSVSQTIEIENFDPDKEYQLVFHAQGEGTVSLQHGEEGEYVETHPHKSANFTTSHRQGVTFETNKVTVEITSEDGEFLVDHIALVEAPLPTDDQSSDGNTTSNTNSNTSMNNNQ
modifications: pesticidal crystal (Cry)

How the values were obtained:
[1] = test system: A. ceylanicum; conditions: cited from earlier work; for % Parasite reduction: hamsters
[2] = test system: Ancylostoma ceylanicum hookworms; test: A. ceylanicum hookworm curative experiment in hamsters (worm burdens, fecal egg counts); assay type: in vivo; conditions: single 10 mg/kg (71 nmol/kg) Cry5B dose per os
Procedure: (A) Intestinal hookworm burdens in nine hamsters following treatment with PY79-vector or PY79-Cry5B (10 mg/kg Cry5B) (error bars in all panels show standard errors). The average worm burdens were 18.6±2.6 and 1.3±0.3 for PY79-vector and PY79-Cry5B, respectively. (B) Fecal egg counts on day −1, day +1, and day +3 relative to the day of treatment. The actual egg counts for PY79-vector and PY79-Cry5B were 965±193 and 1,044±99, respectively, on day −1, 1,055±230 and 94±60, respectively, on day +1, and 1,055±227 and 100±42, respectively, on day +3. EPG, eggs per gram of feces. (C) In vivo dose-response experiment with 12 hamsters. […]
For in vivo curative experiments, male hamsters were infected per os with 150 A. ceylanicum infectious larvae. On day 17 postinoculation (p.i.), a fecal sample was collected from each hamster, and the number of eggs was counted using the modified McMaster technique (13). […] The hamsters were sacrificed on day 22 p.i., and intestinal parasite burdens were determined as described previously (14). The one-tailed Mann-Whitney test was performed to compare the two groups for significance in the experiment using a dose of 10 mg/kg of body weight (data were calculated and plotted using Prism 5 [GraphPad Software Inc., La Jolla, CA]). […]

Molecule | % Parasite reduction ([1]; 10 mg/kg) [%] | also measured
CCCSc1ccc2nc(NC(=O)OC)[nH]c2c1 [Albendazole, albendazole] |  | % Parasite reduction ([1]; 1.25 mg/kg (4.7 μmol/kg)): 88%
c1ccc([C@H]2CN3CCSC3=N2)cc1 [Levamisole, levamisole] | 60 | 
CN1CCCN=C1/C=C/c1cccs1 [Pyrantel, pyrantel] | 87 | 
C/C(=N/c1ccc(/N=C/c2ccc(/C=N/c3ccc(/N=C(/C)N(C)C)cc3)cc2)cc1)N(C)C [Tribendimidine, tribendimidine] | 75 | 
B1 |  | % reduction of hookworm burden ([1]; purified protein 10 mg/kg, previously published data (ref 14)): 65%; % reduction of hookworm burden relative to control [2]: 93%
